According to US12005265B2, “Compositions and methods to modulate cell activity” (THE ROCKEFELLER UNIVERSITY, priority 2014, dated 2024):

Legend:
[1] = system: N38 cells; assay: Multiphoton chloride imaging (MQAE) of stably transfected N38 cells; assay type: cell-based, mouse
Protocol: Stably transfected cells were washed with Krebs-HEPES buffer 3 times then loaded with MQAE (N-(Ethoxycarbonylmethyl)-6-Methoxyquinolinium Bromide, 5 mM, Invitrogen) for 60 min at room temperature. […] Imaging was performed using LSM 510 NLO inverted multiphoton and confocal system (Zeiss) using a 40× objective with two photon excitation at 750 nm. […] Imaging was repeated in the presence of Ruthenium red (100 μM) (2 occasions for each condition). Images were analyzed using Image J software.

[2] = system: HEK or N38 cells; assay: Whole cell voltage clamp recordings of cultured HEK and N38 cells; assay type: cell-based; conditions: 2APB 200 μM, −60 mV
Protocol: Neurons expressing GFP were visualized using epifluorescence on an upright Zeiss Axioskop 2FS Plus microscope equipped with a Hamamatsu CCD camera. External solution contained (in mM): 140 NaCl, 2.8KCl, 2CaC2, 1 MgCl2, 1HEPES, 10 glucose, pH 7.4.
I-V relationships were obtained by measuring current responses to increasing 5 mV steps in the presence of 200 μM 2APB. Cells were held at −60 mV. Magnetic activation was applied by bringing a permanent magnet within 500 microns of the recorded cell for 5 seconds with a micromanipulator. Recordings were acquired with an Axopatch 200B amplifier, filtered to 2 kHz and digitized at 10 kHz (pClamp software, Molecular Devices). Data were analyzed using IGOR Pro (Wavemetrics) and NeuroMatic. (neuromatic.thinkrandom.com). Series resistance was monitored and not compensated for. If there was more than a 20% change in series resistance the recording was excluded.

[3] = system: αGFP-TRPV1; conditions: HEK cells transfected with αGFP-TRPV1; 2APB; vs 0.85-fold
[4] = system: N38 cells; assay: Calcium imaging of stably transfected N38 cells under RF or magnet; assay type: cell-based, mouse; conditions: N38 cells expressing αGFP-TRPV1/GFP-ferritin
Protocol: TRPV1 is a non-selective cation channel with relatively high permeability to divalent cations, particularly calcium (Ca2+>Mg2+>Na+K+Cs+)^55. […] Cells were washed again in PBS then incubated for 15-30 min in sulfinpyrazone in PBS. […] Images were acquired every 3 seconds for 3 minutes. […] Imaging was repeated in the presence of Ruthenium red (100 μM) (2 occasions for each condition). Images were analyzed using Image J software.
For studies to examine the effects of increasing RF or magnet field strength, to assess the effects of short RF treatment (10s) on calcium responses and to examine the kinetics of the calcium response, cells were loaded with FluoForte 20 μM (Enzo Life Sciences, Lorrach, Germany) in the presence of Pluronic F-127 (0.02% vol/vol) and sulfinpyrazone 500 μM. […] Imaging was performed as above with images acquired every second for 1 minute. Cells were imaged without treatment (4 occasions), before and during RF treatment at 31, 27 and 23 mT (4 occasions each), before and during application of a neodymium magnet at 280 or 130 mT (magnet 2 mm or 5 mm from the cells respectively, 4 occasions each) and before, during and after 10 second treatment with RF (31 mT) (4 occasions). Images were analyzed using Image J software.

[5] = system: N38 cells; assay: Effect of RF on pCREB and c-fos in N38 cells; assay type: cell-based, mouse; conditions: N38 cells expressing αGFP-TRPV1/GFP-ferritin
Protocol: Effect of RF or magnet on pCREB and cFos: 24 h prior to the study, cells were placed in 1% FBS medium at 32° C. to ensure minimal activation of TRPV1 and calcium dependent pathways. On the day of study, cells were incubated in 500 μl of calcium imaging buffer at room temperature (control) or in a RF field (31 mT) at room temperature. For magnet treatment, cells were treated with a static magnetic field (280 mT) for 5 seconds every 2 minutes for 1 hour at room temperature. After 60 min, the cells were placed on ice, the supernatant removed and cells lysed with RIPA buffer (40 μl, pCREB) or lysis buffer (100 μl Agilent Absolutely RNA microprep kit) and frozen at −80° C. until assay or RNA purification. Each study was repeated on 3 occasions each with 4 replicates. Control studies with N38 cells alone were performed on 2 occasions with 4 replicates.
Protein was isolated by lysis in RIPA buffer and centrifugation at 16000 rpm, 4° C. for 5 min before addition of 4× Laemelli buffer. Samples were denatured for 5 mins at 95° C. and frozen at −20° C. before assay. Samples (15 ul) were run on a 4-15% gel then transferred to PVDF membrane. Membranes were blocked (3% dried milk in TBST buffer) for 1 hour at room temperature then incubated in primary antibody (Phospho-CREB (Ser133) (87G3) Rabbit mAb (1:1000) or beta Actin Rabbit Ab (1:1000), Cell Signaling) in TBST overnight at 4 degrees. […]

[6] = N38 cells stably transfected with αGFP-TRPV1^Mutant/GFP-ferritin

| Compound | level of intracellular chloride measured by MQAE quenching [1, 6] | current induced by TRPV1 agonist ([2]; HEK cell expressing αGFP-TRPV1/GFP-ferritin) | current induced by TRPV1 agonist ([2]; HEK cell expressing αGFP-TRPV1^Mutant/GFP-ferritin) | change in Fluo-4 fluorescence (intracellular calcium) [3] | effect on RF-induced rise of intracellular calcium [4] | effect on magnet-induced increase of intracellular calcium [4] | effect on RF-induced increase of pCREB and c-fos [5] | effect on magnet-induced increase of intracellular chloride ([1]; N38 cells expressing αGFP-TRPV1^Mutant/GFP-ferritin) | effect on 2APB-induced increase of intracellular chloride [1, 6] |
| --- | --- | --- | --- | --- | --- | --- | --- | --- | --- |
| NCCOB(c1ccccc1)c1ccccc1 [2APB, 2-aminoethoxydiphenyl borate] | significantly increased | inward current | outward current | 2.0 fold | – | – | – | – | – |
| N.N.N.N.N.N.N.N.N.N.N.N.N.N.[Cl-].[Cl-].[Cl-].[Cl-].[Cl-].[Cl-].[O-2].[O-2].[Ru+3].[Ru+3].[Ru+4] [ruthenium red] | – | – | – | – | blocked | blocked | blocked | blocked | blocked |
